From patent US7872002B2, “Therapeutic pyrazoloquinoline derivatives” (Helicon Therapeutics, Inc., priority 2007, dated 2011)

Biological target: GABAA central benzodiazepine receptor
Experiment: Benzodiazepine Binding Assay ((3H)-flunitrazepam, rat whole brain except cerebellum)
Details: read-out: BZ binding assay (IC50); 1 nM (3H)-flunitrazepam, 60 minutes at 25° C., pH 7.4; with or without 30 μM GABA

Row | SMILES | IC50 [nM]
1 | O=c1c2c[nH]c3c(N4CCOCC4)cc(N4CCOCC4)cc3c-2nn1-c1ccccc1 [Compound 58a, 6,8-Bis(morpholin-4-yl)-2-phenyl-2,5-dihydro-pyrazolo[4,3-c]quinolin-3-one] | 1 to 1000
2 | CC(C)N1CCN(c2cc(N3CCN(C(C)C)CC3)c3[nH]cc4c(=O)n(-c5ccccc5)nc-4c3c2)CC1 [Compound 58b, 6,8-Bis(4-iso-propylpiperazin-1-yl)-2-phenyl-2,5-dihydro-pyrazolo[4,3-c]quinolin-3-one] | 1 to 1000
